{
  "source": "ChEMBL document CHEMBL5390250",
  "about": "“Synthesis and biological evaluation of bi-modal BODIPY-conjugated Hoechst applicable for Auger-electron and photodynamic cancer therapy” (Bioorg Med Chem Lett, 2023)",
  "key": {"[1]": {"system": "HeLa", "test": "Antiproliferative activity against human HeLa cells assessed as auger electron mediated reduction in cell viability at 18.5 kBq measured after 6 hrs by MTT assay relative to control", "assay_type": "functional"}, "[2]": {"test": "Drug uptake in human HeLa cells assessed as increase in intracellular fraction measured upto 6 hrs", "assay_type": "ADME, cell-based"}, "[3]": {"test": "Drug uptake in nucleus of human HeLa cells measured upto 6 hrs", "assay_type": "ADME, subcellular"}, "[4]": {"test": "Fluorescence property of compound in MeOH assessed as molar extinction coefficient", "assay_type": "physicochemical"}, "[5]": {"system": "HeLa", "test": "Antiproliferative activity against human HeLa cells assessed as auger electron mediated reduction in cell viability measured after 6 hrs by MTT assay", "assay_type": "functional, cell-based", "settings": "dose <= 18.5 kBq, tested as the 125I-labelled form"}, "[6]": {"test": "Induction of singlet oxygen production in MeOH assessed as singlet oxygen quantum yield at 410 nm by DPBF based assay", "assay_type": "functional"}, "[7]": {"system": "HeLa", "test": "Photocytotoxicity against human HeLa cells assessed as reduction in cell viability at 1600 nM preincubated for 24 hrs followed by light irradiation at 525 nm for 6 mins by MTT assay relative to control", "assay_type": "functional"}, "[8]": {"system": "HeLa", "test": "Photocytotoxicity against human HeLa cells assessed as reduction in cell viability preincubated for 24 hrs followed by light irradiation at 525 nm for 6 mins by MTT assay", "assay_type": "functional, cell-based", "settings": "for Activity: dose <= 1600.0 nM, time 1446.0 min; for IC50: light or radiation study"}, "[9]": {"test": "Absorption property of compound in MeOH assessed as maximal wavelength", "assay_type": "physicochemical"}, "[10]": {"test": "Fluorescence property of compound in MeOH assessed as quantum yield by spectroscopic analysis", "assay_type": "physicochemical"}, "[11]": {"system": "HeLa", "test": "Photocytotoxicity against human HeLa cells assessed as reduction in cell viability upto 1600 nM measured after 24 hrs under dark condition by MTT assay", "assay_type": "functional, cell-based"}, "[12]": {"system": "HeLa", "test": "Induction of DNA damage in human HeLa cells assessed as increase in gamma H2AX foci density in nucleus measured after 2 hrs by immmunofluorescence staining based analysis", "assay_type": "functional, cell-based", "settings": "dose <= 18.5 kBq, tested as the 125I-labelled form"}, "[13]": {"system": "HeLa", "test": "Induction of DNA damage in human HeLa cells assessed as increase in gamma H2AX foci in nuclei at 18.5 kBq measured after 2 hrs by immmunofluorescence staining based analysis", "assay_type": "functional, cell-based", "settings": "tested as the 125I-labelled form"}, "[14]": {"test": "Emission property of compound in MeOH assessed as maximal wavelength", "assay_type": "physicochemical"}, "[15]": {"test": "Absorption property of compound in MeOH assessed as maximal wavelength by spectroscopic analysis", "assay_type": "physicochemical"}, "[16]": {"system": "HeLa", "test": "Antiproliferative activity against human HeLa cells assessed as reduction in cell viability measured after 6 hrs by MTT assay", "assay_type": "functional, cell-based"}, "[17]": {"test": "Emission property of compound in MeOH assessed as maximal wavelength by spectroscopic analysis", "assay_type": "physicochemical"}, "[18]": {"test": "Fluorescence property of compound in MeOH assessed as molar extinction coefficient by spectroscopic analysis", "assay_type": "physicochemical"}, "[19]": {"test": "Induction of singlet oxygen production in MeOH assessed as singlet oxygen quantum yield", "assay_type": "functional"}, "[20]": {"test": "Fluorescence property of compound in toluene assessed as quantum yield", "assay_type": "physicochemical"}},
  "note": "The source made the active and inactive calls. No cut-off for these calls is given here.",
  "data": [
    {"smiles": "CC1=C([125I])C(C)=[N+]2C1=C(c1ccc(C(=O)NCCCCOc3ccc(-c4nc5ccc(-c6nc7ccc(N8CCN(C)CC8)cc7[nH]6)cc5[nH]4)cc3)cc1)c1c(C)c(I)c(C)n1[B-]2(F)F", "values": [
      {"measurement": "Activity", "setting": "[1]", "value": 43, "unit": "%"},
      {"measurement": "Drug uptake", "setting": "[2]", "value": "Active"},
      {"measurement": "Drug uptake", "setting": "[3]", "value": "Active"}
    ]},
    {"smiles": "CC1=C(I)C(C)=[N+]2C1=C(c1ccc(C(=O)NCCCCOc3ccc(-c4nc5ccc(-c6nc7ccc(N8CCN(C)CC8)cc7[nH]6)cc5[nH]4)cc3)cc1)c1c(C)cc(C)n1[B-]2(F)F", "values": [
      {"measurement": "Activity", "setting": "[4]", "value": 22000, "unit": "M⁻¹ cm⁻¹"},
      {"measurement": "Activity", "setting": "[5]", "value": "Dose-Dependent Effect"},
      {"measurement": "Activity", "setting": "[6]", "value": 0.32},
      {"measurement": "Activity", "setting": "[7]", "value": 50, "unit": "%"},
      {"measurement": "Activity", "setting": "[8]", "value": "Dose-Dependent Effect"},
      {"measurement": "IC50", "setting": "[8]", "value": 702, "unit": "nM"},
      {"measurement": "Activity", "setting": "[9]", "value": 517, "unit": "nm"},
      {"measurement": "Activity", "setting": "[10]", "value": 0.06},
      {"measurement": "Activity", "setting": "[11]", "value": "inactive"},
      {"measurement": "Activity", "setting": "[12]", "value": "Dose-Dependent Effect"},
      {"measurement": "Activity", "setting": "[13]", "value": "Active"},
      {"measurement": "Activity", "setting": "[14]", "value": 532, "unit": "nm"}
    ]},
    {"smiles": "CC1=C(I)C(C)=[N+]2C1=C(c1ccc(C(=O)NCCCCOc3ccc(-c4nc5ccc(-c6nc7ccc(N8CCN(C)CC8)cc7[nH]6)cc5[nH]4)cc3)cc1)c1c(C)c(I)c(C)n1[B-]2(F)F", "values": [
      {"measurement": "Activity", "setting": "[5]", "value": "Dose-Dependent Effect"},
      {"measurement": "Activity", "setting": "[6]", "value": 0.41},
      {"measurement": "Activity", "setting": "[7]", "value": 29, "unit": "%"},
      {"measurement": "Activity", "setting": "[15]", "value": 533, "unit": "nm"},
      {"measurement": "Activity", "setting": "[8]", "value": "Dose-Dependent Effect"},
      {"measurement": "IC50", "setting": "[8]", "value": 195, "unit": "nM"},
      {"measurement": "Activity", "setting": "[16]", "value": "inactive"},
      {"measurement": "Activity", "setting": "[10]", "value": 0.04},
      {"measurement": "Activity", "setting": "[11]", "value": "inactive"},
      {"measurement": "Activity", "setting": "[17]", "value": 552, "unit": "nm"},
      {"measurement": "Activity", "setting": "[12]", "value": "Dose-Dependent Effect"},
      {"measurement": "Activity", "setting": "[13]", "value": "Active"},
      {"measurement": "Activity", "setting": "[18]", "value": 20600, "unit": "M⁻¹ cm⁻¹"}
    ]},
    {"smiles": "CN(C)c1ccc2cc3ccc(N(C)C)cc3[n+](CCCCCNC(=O)c3ccc(I)cc3)c2c1", "values": [
      {"measurement": "Activity", "setting": "[5]", "value": "Dose-Dependent Effect"}
    ]},
    {"smiles": "O=C(O)c1c(Cl)c(Cl)c(Cl)c(Cl)c1-c1c2cc(I)c(=O)c(I)c-2oc2c(I)c(O)c(I)cc12", "values": [
      {"measurement": "Activity", "setting": "[19]", "value": 0.76}
    ]},
    {"smiles": "CN(C)c1ccc2cc3ccc(N(C)C)cc3[n+](CCCCCNC(=O)c3ccc([125I])cc3)c2c1", "values": [
      {"measurement": "Activity", "setting": "[1]", "value": 64, "unit": "%"}
    ]},
    {"smiles": "CC1=C(I)C(C)=[N+]2C1=C(c1ccc(C(=O)ON3C(=O)CCC3=O)cc1)c1c(C)cc(C)n1[B-]2(F)F", "values": [
      {"measurement": "Activity", "setting": "[20]", "value": 0.11}
    ]},
    {"smiles": "CC1=C([125I])C(C)=[N+]2C1=C(c1ccc(C(=O)NCCCCOc3ccc(-c4nc5ccc(-c6nc7ccc(N8CCN(C)CC8)cc7[nH]6)cc5[nH]4)cc3)cc1)c1c(C)cc(C)n1[B-]2(F)F", "values": [
      {"measurement": "Activity", "setting": "[1]", "value": 60, "unit": "%"},
      {"measurement": "Drug uptake", "setting": "[2]", "value": "Active"},
      {"measurement": "Drug uptake", "setting": "[3]", "value": "Active"}
    ]}
  ]
}
